Reference: paper PMC6114082, “Synthesis of aminophenylhydroxamate and aminobenzylhydroxamate derivatives and in vitro screening for antiparasitic and histone deacetylase inhibitory activity” (International Journal for Parasitology: Drugs and Drug …, 2018)
Like-named read-outs stand apart in the source and are kept apart here.

Legend:
[1] = test system: L. tropica MHOM/BR/73/5-ASKM; experiment: Antileishmanial activity, L. tropica promastigotes; type: cell-based, Leishmania tropica
Description: (§1) The antitrypanosomatid activity of the compounds was ascertained as follows. Leishmania parasites were cultured at 26 °C in SDM-79 medium supplemented with 10% fetal calf serum (FCS), and the antileishmanial activity was determined according to a previously published protocol for LUC-expressing and wild-type Leishmania ([Sereno et al., 2001], [Abbassi et al., 2008]). Trypanosoma brucei gambiense were grown at 26 °C in Cunningham's medium supplemented with 10% FCS, 2 mM GlutaMAX-1 (Gibco, USA), 100 U/ml penicillin, 100 μg/ml streptomycin and […] bovine hemin. The epimastigote form of Trypanosoma cruzi (strain Y cl7 scl2, lineage Tc2) (kindly provided by Philippe Truc and Christian Barnabé, UMR 177 IRD-CIRAD InterTryp, Montpellier, France) were grown at 26 °C in liver infusion tryptose (LIT) medium, supplemented with 10% FCS, 2 mM GlutaMAX™-I, 100 U/ml penicillin, 100 μg/ml streptomycin and bovine hemin (20 mg/l) (Gibco). The antitrypanosomatids activity was determined using a protocol that was initialy set up for wild-type Leishmania ([Abbassi et al., 2008]). To assess the drug activity on Toxoplasma gondii, confluent human foreskin fibroblast (HFF) monolayers were infected with YFP-type I Rh kindly provided by B. Striepen, see ([Striepen et al., 1998]) or Tomato-type II Pru kindly provided by N. Blanchard (Toulouse), expressing parasites at 5 × 10^4 per well, which were then centrifuged for 30 s at 1300 rpm and incubated for 30 min in a water bath at 37 °C to allow invasion. The wells were then washed three times with PBS to eliminate extracellular parasites, and the drugs were added at various concentrations ranging from 1 to 50 μM. After incubation for 24 h at 37 °C in a humidified atmosphere containing 5% CO2, the cells were fixed in 2.5% methanol-free formaldehyde (Tebu-bio)/PBS for 30 min at room temperature. Nuclei were stained with Hoechst 33258 (2 μg/ml, Molecular Probes) for 20 min and then washed three times with water for 10 min each time. The number of infected cells, i.e., cells harboring a parasitophorous vacuole, and the number of parasites per vacuole were determined using an Olympus ScanR microscope ( × 20 objective) and ScanR software. The parasitic index in % compared to the control was calculated as follows: (PI=((number of parasite/100 cells in treated wells) x (% of infected macrophage in treated well)/(number of parasite/100 cells in untreated wells) x (% of infected macrophage in untreated wells))*100).

[2] = test system: L. infantum MHOM/MA/67/ITMAP-264; experiment: Antileishmanial activity, L. infantum promastigotes (luciferase expressing strain); type: cell-based, Leishmania infantum; conditions: for IS^b selectivity index for L. infantum: IC50 THP-1 / IC50 Leishmania infantum (footnote); for IC50: promastigotes, luciferase expressing strain
Description: as §1

[3] = test system: T. brucei MHOM/CI/81/DAL967; experiment: Antitrypanosomal activity, T. brucei; type: cell-based, Trypanosoma brucei gambiense
Description: as §1

[4] = test system: L. braziliensis MHOM/BR/75/M209; experiment: Antileishmanial activity, L. braziliensis promastigotes (luciferase expressing strain); type: cell-based, Leishmania braziliensis
Description: as §1

Leishmania = experiment: Antileishmanial activity, Leishmania species summarised in text; type: cell-based, Leishmania spp.; conditions: abstract sentence also covers antitrypanosomal activity, read-out: antileishmanial activity IC50, summarised over species
Description: The antitrypanosomatid activity of the compounds was ascertained as follows. Leishmania parasites were cultured at 26 °C in SDM-79 medium supplemented with 10% fetal calf serum (FCS), and the antileishmanial activity was determined according to a previously published protocol for LUC-expressing and wild-type Leishmania ([Sereno et al., 2001], [Abbassi et al., 2008]). Trypanosoma brucei gambiense were grown at 26 °C in Cunningham's medium supplemented with 10% FCS, 2 mM GlutaMAX-1 (Gibco, USA), 100 U/ml penicillin, 100 μg/ml streptomycin and 20 mg/ml bovine hemin. […] The antitrypanosomatids activity was determined using a protocol that was initialy set up for wild-type Leishmania ([Abbassi et al., 2008]). […] The number of infected cells, i.e., cells harboring a parasitophorous vacuole, and the number of parasites per vacuole were determined using an Olympus ScanR microscope ( × 20 objective) and ScanR software. The parasitic index in % compared to the control was calculated as follows: (PI=((number of parasite/100 cells in treated wells) x (% of infected macrophage in treated well)/(number of parasite/100 cells in untreated wells) x (% of infected macrophage in untreated wells))*100).

[5] = test system: HeLa nuclear extract (HDAC 1, 2, 6, and 8 predominant); experiment: Fluorometric HDAC assay, HeLa nuclear extract; type: biochemical; conditions: HeLa nuclear extract; read-out: HDACi HeLa IC50
Description: The HDACi effect against HeLa nuclear extracts and recombinant proteins were measured using a fluorometric HDAC assay kit (Active Motif, Belgium) according to the manufacturer's instructions. […] A negative control containing trichostatin A at a final concentration of 2 μM was analyzed for each independent experiment.

[6] = Cytotoxicity, MTT assay, HFF; type: cell-based, human; conditions: human, HFF cells
Description: (§2) The human monocytic cell line THP-1 was cultivated in RPMI medium supplemented with 10% FCS, 2 mM GlutaMAX, 100 U/ml penicillin, and 100 μg/ml streptomycin. HFF cells were cultivated in Dulbecco's modified Eagle's medium (DMEM) with Earle's salts containing 10% FCS, 10 mM HEPES, 1 mM sodium pyruvate, 2 mM GlutaMAX, 100 U/ml penicillin, and 100 μg/ml streptomycin. The THP-1 and HFF cells were maintained in a 5% CO2 incubator at 37 °C. Cytotoxicity was evaluated via the MTT assay, and the IC50 values were calculated using Prism software (Prism 4 for Mac OS X, version 5.0b, December, 2008).

T. gondi RH-YFP [7] = experiment: Anti-Toxoplasma activity in infected HFF monolayers, type I RH-YFP (parasitic index); type: cell-based, Toxoplasma gondii; conditions: for IS^a selectivity index for T. gondi: IC50 HFF / IC50 T. gondi RH-YFP; for IC50: 24 h, type I strain, in HFF, read-out: T. gondi RH-YFP IC50
[8] = Cytotoxicity, MTT assay, THP-1; type: cell-based, human; conditions: human, THP-1 cells (monocytic cell line); MTT assay
Description: as §2

THP-1 cells = experiment: Cytotoxicity, MTT assay, THP-1; type: cell-based, human; conditions: MTT assay
Description: as §2

HFF cells = experiment: Cytotoxicity, MTT assay, HFF; type: cell-based, human
Description: as §2

T. gondi RH-YFP [9] = test system: T. gondi RH-YFP; set-up: method as in Butler et al., 2013; conditions: ref Butler et al., 2013; read-out: anti-Toxoplasma IC50, literature; cited from earlier work

SMILES | IC50 ([1]; Leishmania tropica) [µM] | IS^b selectivity index for L. infantum [2] | IC50 ([2]; Leishmania infantum) [µM] | IC50 ([3]; Trypanosoma brucei) [µM] | IC50 ([4]; Leishmania braziliensis) [µM] | IC50 (Leishmania) [µM] | IC50 [5] [µM] | IC50 [6] [µM] | IS^a selectivity index for T. gondi (T. gondi RH-YFP [7]) | IC50 [8] [µM] | IC50 (T. gondi RH-YFP [7]; Toxoplasma gondii) [µM] | IC50 [1] [µM] | IC50 [2] [µM] | IC50 [3] [µM] | IC50 [4] [µM] | IC50 (THP-1 cells) [µM] | IC50 (HFF cells) [µM] | IC50 (T. gondi RH-YFP [7]) [µM] | IC50 (T. gondi RH-YFP [9]) [µM]
O=C(NO)c1ccc(CNC(=O)c2cccc(F)c2)cc1 [Compound 345, 4-{[(3-fluorophenyl)formamido]methyl}-N-hydroxybenzamide] | 35.3 ± 12.2 | 0.3 | 27.2 ± 2.5 | > 60 | 23.5 ± 1.5 | 15 to 50 | 0.866 ± 0.4 | 58.3 ± 1.2 | 11.6 |  |  |  |  |  |  |  |  |  | 
O=C(NO)c1ccc(NC(=O)c2cccc(F)c2)cc1 [Compound 349, 4-(3-fluorobenzamido)-N-hydroxybenzamide] | > 60 |  | > 60 | > 60 | > 60 |  | 0.633 ± 0.041 | > 400 |  | 264 ± 8 | > 50 |  |  |  |  |  |  |  | 
O=C(NO)c1ccc(CNS(=O)(=O)c2cccc(F)c2)cc1 [Compound 350, 4-(3-fluorobenzenesulfonamidomethyl)-N-hydroxybenzamide] | > 60 |  | > 60 | > 60 | > 60 |  |  | 300 ± 50 | 7.5 | > 400 | < 50 |  |  |  |  |  |  |  | 
O=C(NO)c1ccc(NS(=O)(=O)c2cccc(F)c2)cc1 [Compound 351, 4-(3-fluorobenzenesulfonamido)-N-hydroxybenzamide] | > 60 | <1 | > 60 | > 60 | > 60 |  | 0.881 ± 0.083 | 116 ± 3 |  | 33.5 ± 15 | > 50 |  |  |  |  |  |  |  | 
Cc1nc(-c2ccc(C(=O)NCc3ccc(C(=O)NO)cc3)cc2)cs1 [Compound 360] |  |  |  |  |  |  | 0.399 ± 0.137 |  |  |  |  | 55 ± 15 | > 60 | > 60 | > 60 | 2.2 ± 0.5 | 22.6 ± 9.5 |  | 
Cc1nc(-c2ccc(C(=O)Nc3ccc(C(=O)NO)cc3)cc2)cs1 [Compound 361] |  |  |  |  |  |  | > 1.8 |  |  |  |  | > 60 | > 60 | > 60 | > 60 | > 400 | 25 ± 4 | > 50 | 
COc1cccc(CC(=O)NCc2ccc(C(=O)NO)cc2)c1 [Compound 362, N-hydroxy-4-{[2-(3-methoxyphenyl)acetamido]methyl}benzamide] | > 60 | <1 | > 60 | > 60 | > 60 |  | 0.518 ± 0.146 | > 400 | >7.6 | 30.5 ± 3 | > 50 |  |  |  |  |  |  |  | 
CCc1nc(N)nc(N)c1-c1ccc(Cl)cc1 [pyrimethamine] |  |  |  |  |  |  |  |  |  |  |  |  |  |  |  |  |  |  | 0.4
